In brackets after ≈: the same amount, converted by molar mass. Entries after “also recorded” stand apart in the source; their conditions may differ. Read-outs that look alike come from different tables or passages of the source.
Key:
[1] = Dynamic solubility of crystal form in SGF, FaSSIF, FeSSIF and water (HPLC); type: physicochemical
Description: When a drug solubility test was performed to predict the performances of a drug in vivo, it is important to simulate in vivo conditions as much as possible. For oral drugs, simulated gastric fluid (SGF), fasted state simulated intestinal fluid (FaSSIF) and fed state simulated intestinal fluid (FeSSIF) may be used to simulate in vivo conditions and predict a feeding effect, and the solubility tested in such media was closer to the solubility in the human body environment.

[2] = cited from earlier work
[3] = Stability of crystal form DCIII on sealed placement (HPLC purity, XRPD crystal form); type: physicochemical
[4] = Mechanical stability: manual grinding, XRPD before and after; type: physicochemical; conditions: ground manually in a mortar for 5 min
[5] = Hygroscopicity (Chinese Pharmacopoeia 9103, 25±1° C., 80% relative humidity); type: physicochemical; conditions: 80% RH, 24 h
Description: According to the description of hygroscopicity characteristics and the definition (9103 Drug Hygroscopicity Experiment Guiding Principles, 2020 edition of General Principles, Chinese Pharmacopoeia, experimental conditions: 25±1° C., 80% relative humidity) of the hygroscopic weight gain: • deliquescent: enough water is absorbed to form liquid • very hygroscopic: the hygroscopic weight gain is not less than 15.0% • hygroscopic: the hygroscopic weight gain is less than 15.0% but not less than 2.0% • slightly hygroscopic: the hygroscopic weight gain is less than 2.0% but not less than 0.2% • no or almost no hygroscopicity: the hygroscopic weight gain is […].

[6] = 25° C./60% RH, 1 month, sealed, listed as crystal form DCIII
[7] = 40° C./75% RH, 1 month, sealed, listed as crystal form DCIII
[8] = 60° C./75% RH, 1 month, sealed, listed as crystal form DCIII

## C=CC(=O)N1CCN(c2nc(=O)n(-c3c(C)ccnc3C(C)C)c3nc(-c4c(O)cccc4F)c(F)cc23)[C@@H](C)C1 [Anhydrous crystal form I, 6-fluoro-7-(2-fluoro-6-hydroxyphenyl)-1-(4-methyl-2-propane-2-ylpyridin-3-yl)-4-[(2S)-2-methyl-4-propyl-2-enoylpiperazin-1-yl]pyridine[2,3-d]pyrimidin-2-one, reference compound]
[1]; FaSSIF, equilibrated 1 h
  Solubility FaSSIF 1 h: 20 µg/mL (≈ 35.7 µM)
[1]; FaSSIF, equilibrated 4 h
  Solubility FaSSIF 4 h: 10 µg/mL (≈ 17.8 µM)
[1]; FeSSIF, equilibrated 4 h
  Solubility FeSSIF 4 h: 40 µg/mL (≈ 71.4 µM)
[1]; equilibrated 1 h
  Solubility H2O 1 h: 10 µg/mL (≈ 17.8 µM)
[1]; equilibrated 4 h
  Solubility H2O 4 h: 10 µg/mL (≈ 17.8 µM)
[1]; equilibrated 24 h
  Solubility H2O 24 h: 10 µg/mL (≈ 17.8 µM)
[1]; fasted state simulated intestinal fluid (FaSSIF), fassif, thermodynamic from solid, FaSSIF, equilibrated 24 h, read-out: Solubility FaSSIF 24 h
  solubility at 24 h: 30 µg/mL (≈ 53.5 µM)
[1]; fed state simulated intestinal fluid (FeSSIF), fessif, thermodynamic from solid, FeSSIF, equilibrated 24 h, read-out: Solubility FeSSIF 24 h
  solubility at 24 h: 60 µg/mL (≈ 107 µM)
[1]; simulated gastric fluid (SGF), simulated gastric fluid, thermodynamic from solid, SGF, equilibrated 1 h
  solubility at 1 h: 3770 µg/mL (≈ 6720 µM)
[1]; simulated gastric fluid (SGF), simulated gastric fluid, thermodynamic from solid, SGF, equilibrated 4 h
  solubility at 4 h: 3860 µg/mL (≈ 6890 µM)
[1]; simulated gastric fluid (SGF), simulated gastric fluid, thermodynamic from solid, SGF, equilibrated 24 h, read-out: Solubility SGF 24 h
  solubility at 24 h: 3110 µg/mL (≈ 5550 µM)
[2]
  Solubility (prior-art form, in words): low solubility

## C=CC(=O)N1CCN(c2nc(=O)n(-c3c(C)ccnc3C(C)C)c3nc(-c4c(O)cccc4F)c(F)cc23)[C@@H](C)C1 [Crystal form DCIII, 6-fluoro-7-(2-fluoro-6-hydroxyphenyl)-1-(4-methyl-2-propane-2-ylpyridin-3-yl)-4-[(2S)-2-methyl-4-propyl-2-enoylpiperazin-1-yl]pyridine[2,3-d]pyrimidin-2-one]
[1]; FaSSIF, equilibrated 1 h
  Solubility FaSSIF 1 h: 50 µg/mL (≈ 89.2 µM)
[1]; FaSSIF, equilibrated 4 h
  Solubility FaSSIF 4 h: 40 µg/mL (≈ 71.4 µM)
[1]; FaSSIF, equilibrated 24 h
  Solubility FaSSIF 24 h: 40 µg/mL (≈ 71.4 µM)
[1]; FeSSIF, equilibrated 1 h
  Solubility FeSSIF 1 h: 150 µg/mL (≈ 268 µM)
[1]; FeSSIF, equilibrated 4 h
  Solubility FeSSIF 4 h: 200 µg/mL (≈ 357 µM)
[1]; FeSSIF, equilibrated 24 h
  Solubility FeSSIF 24 h: 80 µg/mL (≈ 143 µM)
[1]; equilibrated 1 h
  Solubility H2O 1 h: 30 µg/mL (≈ 53.5 µM)
[1]; equilibrated 4 h
  Solubility H2O 4 h: 30 µg/mL (≈ 53.5 µM)
[1]; equilibrated 24 h
  Solubility H2O 24 h: 30 µg/mL (≈ 53.5 µM)
[1]; SGF, FaSSIF, FeSSIF and pure water
  Solubility compared with anhydrous crystal form I (in words): higher solubility
[1]; SGF, equilibrated 1 h
  Solubility SGF 1 h: 7270 µg/mL (≈ 13000 µM)
[1]; SGF, equilibrated 4 h
  Solubility SGF 4 h: 6240 µg/mL (≈ 11100 µM)
[1]; SGF, equilibrated 24 h
  Solubility SGF 24 h: 4540 µg/mL (≈ 8100 µM)
[3]; 25° C./60% RH, 1 month, sealed
  Crystal form (XRPD): Crystal form DCIII
  Purity (HPLC): 99.45%
[3]; [6]
  Crystal form (XRPD): remains unchanged
  Purity (HPLC): above 99%
[3]; 25° C./60% RH, 40° C./75% RH and 60° C./75% RH
  Time for which physicochemical stability is maintained: at least 1 month
[3]; 40° C./75% RH, 1 month, sealed
  Crystal form (XRPD): Crystal form DCIII
  Purity (HPLC): 99.49%
[3]; [7]
  Crystal form (XRPD): remains unchanged
  Purity (HPLC): does not present a significant decrease
[3]; 60° C./75% RH, 1 month, sealed
  Crystal form (XRPD): Crystal form DCIII
  Purity (HPLC): 99.50%
[3]; [8]
  Crystal form (XRPD): remains unchanged
  Purity (HPLC): does not present a significant decrease
[3]; Onset
  Crystal form (XRPD): Crystal form DCIII
  Purity (HPLC): 99.44%
[4]
  Crystal form before and after grinding (XRPD): remained unchanged; also recorded: no crystal transformation
  Crystallinity after grinding: no significant decrease
[5]
  Weight gain percentage: 0.6%
[5]; onset mass 102.76 mg
  Weight gain mass: 0.64 mg

Source: patent publication US20240409537A1, “Crystal Form of AMG510 Compound, and Preparation Method Thereof and Use Thereof” (BIRDO (SHANGHAI) PHARMACEUTICAL R&D CO., LTD, priority 2021, published 2024)
